Patent US9409858B2, “Selective histone deactylase 6 inhibitors” (H. LEE MOFFITT CANCER CENTER AND RESEARCH INSTITUTE, INC., priority 2012, dated 2016)
Entries after “also recorded” stand apart in the source; their conditions may differ.

Columns and labels:
[1] = molecular target: human, recombinant full-length HDAC6 (Homo sapiens (Human), UniProt Q9UBN7); assay: HDAC inhibition assay, HDAC6; assay type: biochemical;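 also: recombinant full-length human HDAC1 and HDAC6 made in Sf9 cells, compound preincubated 5-10 min then substrate reaction 2 h at 30 °C, ten threefold dilutions from 30 µM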
[2] = molecular target: human, recombinant full-length HDAC1 (Homo sapiens (Human), UniProt Q13547); assay: HDAC inhibition assay, HDAC1; assay type: biochemical
melanoma = assay: Anti-melanoma effect in vivo; conditions: alone or in combination with anti-CLTA4
[3] = test system: STAT3 phosphorylation and recruitment to the IL-10 gene promotor; assay: STAT3 phosphorylation and recruitment to the IL-10 gene promotor in APCs; assay type: cell-based
[4] = test system: antigen-specific T-cell responses; assay: Antigen-specific T-cell responses to vaccination in vivo; set-up: species or system mice; conditions: in vivo treatment
MCL = assay: Antitumor effect in MCL-bearing mice; assay type: in vivo
macrophages = assay: Immunological effects upon macrophages; assay type: cell-based
[5] = test system: JAK2/STAT3 phosphorylation; assay: JAK2/STAT3 phosphorylation in B16 murine melanoma cells in vivo
[6] = test system: naIve and anergic T-cells; assay: In vitro antigen-presenting studies with treated macrophages; assay type: cell-based
[7] = test system: B16 murine melanoma cells; assay: B16 melanoma cell growth inhibition assay (MTS); assay type: cell-based
Protocol: B16 murine melanoma cells were plated at 5×10^3/well in 96 well flat bottom plates. The following day, media was changed to that containing various concentrations of HDACi or matched DMSO vehicle concentrations diluted in complete medium done in triplicate. Cells were incubated for 48 hours at 37° C. and 5% CO2. […] Briefly, 20 μL of reagent were added per well and incubated at 37° C. for 3 hours. […] All values were then normalized and expressed as a percentage of medium control (100%).

[8] = test system: acetyl α-tubulin in B16 melanoma cells; assay: Tubulin acetylation Western blot assay; assay type: cell-based, murine; conditions: low nanomolar treatment, 24 h
Protocol: (§1) […]. B16 melanoma cells were plated at 10^5 cells/well in 12 well plates and allowed to adhere overnight. A 50 mM stock of compound was then added by serial dilutions in complete medium to the indicated concentrations. Cells were incubated for 24 h under humidified conditions (37° C., 5% CO2). Wells were then washed with cold PBS, and cells were lysed in a buffer containing 10 mM Tris-HCl pH 8.0, 10% SDS, […], 100 mM DTT, and 1× protease inhibitor (Roche). Cells were lysed for 30 min on ice and then sonicated for 8 min (8 cycles of 30 s on/30 s rest). Cells were then boiled for 10 min with 6× gel loading buffer and resolved on 4-15% gradient gels and subsequently transferred onto nitrocellulose membranes. Membranes were blocked with 5% milk in PBS-T and detection of specific antigens using antibodies against acetyl-H3 and H3 (Cell Signaling), and acetyl-α-tubulin and α-tubulin (Sigma). Bands were detected by scanning blots with LI-COR Odyssey imaging system using both 700 and 800 channels.

HDAC3 = HDAC3 (Homo sapiens (Human), UniProt O15379); assay: HDAC isoform profile, HDAC3; assay type: biochemical; conditions: Table 3 isoform profile
[9] = test system: histone H3 acetylation in B16 melanoma cells; assay: Histone acetylation Western blot assay; assay type: cell-based, murine
Protocol: as §1

[10] = Table 1, mean of two experiments ± standard deviation, 10-point enzyme assay

human, recombinant full-length HDAC6, sequence (Q9UBN7 whole entry): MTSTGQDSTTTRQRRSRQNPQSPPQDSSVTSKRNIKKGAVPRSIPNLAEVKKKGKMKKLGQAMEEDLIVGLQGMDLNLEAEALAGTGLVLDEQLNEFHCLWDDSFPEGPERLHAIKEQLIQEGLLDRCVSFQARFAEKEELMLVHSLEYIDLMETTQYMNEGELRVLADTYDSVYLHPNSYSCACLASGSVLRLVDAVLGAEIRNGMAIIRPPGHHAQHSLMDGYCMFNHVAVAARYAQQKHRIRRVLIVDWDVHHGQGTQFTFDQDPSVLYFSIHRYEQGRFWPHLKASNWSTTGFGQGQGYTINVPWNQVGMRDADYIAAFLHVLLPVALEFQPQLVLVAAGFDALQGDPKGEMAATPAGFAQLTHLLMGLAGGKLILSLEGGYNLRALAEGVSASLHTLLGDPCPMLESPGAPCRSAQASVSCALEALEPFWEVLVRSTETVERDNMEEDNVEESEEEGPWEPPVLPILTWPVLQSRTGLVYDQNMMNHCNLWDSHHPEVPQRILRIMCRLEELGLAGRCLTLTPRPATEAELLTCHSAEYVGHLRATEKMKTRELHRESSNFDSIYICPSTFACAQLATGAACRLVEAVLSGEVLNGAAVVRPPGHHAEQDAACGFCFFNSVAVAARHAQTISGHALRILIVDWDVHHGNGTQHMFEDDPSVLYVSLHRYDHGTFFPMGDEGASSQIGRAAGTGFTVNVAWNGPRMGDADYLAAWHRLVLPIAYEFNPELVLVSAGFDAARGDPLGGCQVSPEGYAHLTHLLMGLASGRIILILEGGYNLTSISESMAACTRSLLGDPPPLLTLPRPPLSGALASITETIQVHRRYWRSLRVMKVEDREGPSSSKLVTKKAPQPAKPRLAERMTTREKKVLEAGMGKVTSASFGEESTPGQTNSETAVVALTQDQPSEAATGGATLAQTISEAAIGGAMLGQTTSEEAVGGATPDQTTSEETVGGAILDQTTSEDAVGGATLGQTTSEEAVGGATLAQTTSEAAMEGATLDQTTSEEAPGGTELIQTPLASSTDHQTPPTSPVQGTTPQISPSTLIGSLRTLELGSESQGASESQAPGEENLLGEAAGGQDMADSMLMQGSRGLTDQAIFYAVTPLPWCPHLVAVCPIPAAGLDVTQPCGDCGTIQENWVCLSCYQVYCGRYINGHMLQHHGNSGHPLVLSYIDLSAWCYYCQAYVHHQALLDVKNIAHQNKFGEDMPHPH
human, recombinant full-length HDAC1, sequence (Q13547 whole entry): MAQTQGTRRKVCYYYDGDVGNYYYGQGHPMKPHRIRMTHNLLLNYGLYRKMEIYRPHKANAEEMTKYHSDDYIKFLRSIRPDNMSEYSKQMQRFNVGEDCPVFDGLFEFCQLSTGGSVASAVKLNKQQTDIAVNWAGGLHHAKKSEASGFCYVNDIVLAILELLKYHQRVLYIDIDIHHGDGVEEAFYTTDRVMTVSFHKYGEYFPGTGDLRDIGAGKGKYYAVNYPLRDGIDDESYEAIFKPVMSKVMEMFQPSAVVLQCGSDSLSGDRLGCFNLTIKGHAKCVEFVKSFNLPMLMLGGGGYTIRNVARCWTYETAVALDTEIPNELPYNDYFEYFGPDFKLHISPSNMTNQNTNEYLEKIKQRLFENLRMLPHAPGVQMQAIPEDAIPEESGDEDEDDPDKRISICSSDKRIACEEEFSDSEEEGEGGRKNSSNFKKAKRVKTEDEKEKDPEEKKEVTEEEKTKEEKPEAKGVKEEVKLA
HDAC3, sequence (O15379 whole entry, canonical isoform): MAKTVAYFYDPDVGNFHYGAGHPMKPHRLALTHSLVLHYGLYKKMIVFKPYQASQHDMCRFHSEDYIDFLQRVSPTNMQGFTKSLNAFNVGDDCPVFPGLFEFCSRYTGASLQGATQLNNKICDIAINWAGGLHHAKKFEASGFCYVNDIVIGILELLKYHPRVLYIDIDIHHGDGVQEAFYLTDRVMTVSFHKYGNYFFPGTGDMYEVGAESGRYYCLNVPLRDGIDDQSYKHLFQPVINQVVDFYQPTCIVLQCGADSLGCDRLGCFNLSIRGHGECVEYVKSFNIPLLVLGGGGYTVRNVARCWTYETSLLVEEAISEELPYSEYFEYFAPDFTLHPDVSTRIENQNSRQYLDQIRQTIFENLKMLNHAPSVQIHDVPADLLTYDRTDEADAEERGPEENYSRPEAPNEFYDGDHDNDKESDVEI
HDAC3, sequence (Q9Y618 395-489 partner): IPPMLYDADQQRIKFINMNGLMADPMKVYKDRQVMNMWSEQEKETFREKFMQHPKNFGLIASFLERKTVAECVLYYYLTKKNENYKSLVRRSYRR

Structure (SMILES)	Fold Selective (HDAC1/HDAC6) ([1]; Table 1)	IC50 [1, 10] [nM]	IC50 [2, 10] [nM]	also measured
Cc1cc(NC(=O)NCc2ccc(C(=O)NO)cc2)no1 [Compound 9c]	145	6.9	1000	
COCCCN(Cc1ccc(C(=O)NO)cc1)C(=O)Nc1ccccc1 [Compound 5e, N-hydroxy-4-((1-(3-methoxypropyl)-3-phenylureido)methyl)benzamide]	443	11.7 ± 1.7	5180 ± 130	
CC(C)[C@@H]1C(=O)N(c2ccccc2)C(=O)N1Cc1ccc(C(=O)NO)cc1 [Compound 10b]				Fold Selective (HDAC1/HDAC6) ([1]; Table 2, cyclic urea compounds): 531; IC50 ([1]; Table 2, cyclic urea compounds): 22.2 nM; IC50 ([2]; Table 2, cyclic urea compounds): 11800 nM
COc1ccccc1NC(=O)N(CCCN(C)C)Cc1ccc(C(=O)NO)cc1 [Compound 5a, 4-((1-(3-(dimethylamino)propyl)-3-(2-methoxyphenyl)ureido)methyl)-N-hydroxybenzamide]	6	458 ± 64	2550 ± 540	
COc1ccccc1NC(=O)N(CCc1c[nH]c2ccccc12)Cc1ccc(C(=O)NO)cc1 [Compound 5c, 4-((1-(2-(1H-indol-3-yl)ethyl)-3-(2-methoxyphenyl)ureido)methyl)-N-hydroxybenzamide]	19	468 ± 130	8950 ± 770	
COc1ccccc1NC(=O)N(CCCO)Cc1ccc(C(=O)NO)cc1 [Compound 5b, N-hydroxy-4-((1-(3-hydroxypropyl)-3-(2-methoxyphenyl)ureido)methyl)-benzamide]	803	2.38 ± 0.38	1910 ± 570	
CCCCN(C(=O)NCc1ccc(C(=O)NO)cc1)c1ccccc1 [Compound 8a, 4-((3-butyl-3-phenylureido)methyl)-N-hydroxybenzamide]	322	25.2 ± 2.5	8120 ± 600	
COc1ccccc1NC(=O)NCc1ccc(C(=O)NO)cc1 [Compound 1]	2	139 ± 27	265 ± 59	
Cc1ccnc(NC(=O)NCc2ccc(C(=O)NO)cc2)c1 [Compound 9b]	263	2.2	579	
CN1CCc2c(c3ccccc3n2Cc2ccc(C(=O)NO)cc2)C1 [Tubastatin A]				anti-melanoma effect (melanoma): anti-melanoma effect; STAT3 phosphorylation and recruitment to the IL-10 gene promotor [3]: decreased STAT3 phosphorylation and recruitment to the IL-10 gene promotor; antigen-specific T-cell responses to vaccination [4]: augments antigen-specific CD4+ T-cell responses to vaccination; antigen-specific T-cell responses to vaccination ([4]; listed as Tubastatin-A): enhances antigen-specific T-cell responses to vaccination; antitumor effect (MCL): strong antitumor effect; IL-10 production (macrophages): inhibits IL-10 production; expression of co-stimulatory molecules (macrophages): increased the expression of co-stimulatory molecules; JAK2/STAT3 phosphorylation [5]: inhibits JAK2/STAT3 phosphorylation; activation of T-cells by treated macrophages [6]: better activators of naIve T-cells and restore the responsiveness of anergic T-cells
O=C(NO)c1ccc(CN2C(=O)N[C@@H](Cc3ccccc3)C2=O)cc1 [Compound 11a]				Fold Selective (HDAC1/HDAC6) ([1]; Table 2, cyclic urea compounds): 295; IC50 ([1]; Table 2, cyclic urea compounds): 25.6 nM; IC50 ([2]; Table 2, cyclic urea compounds): 7560 nM
O=C(NO)c1ccc(CN(CCc2ccccc2)C(=O)Nc2ccccc2)cc1 [Compound 5h, N-hydroxy-4-((1-phenethyl-3-phenylureido)methyl)benzamide]	222	14 ± 0.75	3120 ± 640	growth inhibition of B16 melanoma cells (in words) [7]: capable of inhibiting the growth of B16 melanoma cell line
COc1ccccc1NC(=O)N(CCc1ccc(O)cc1)Cc1ccc(C(=O)NO)cc1 [Compound 5d, N-hydroxy-4-((1-(4-hydroxyphenethyl)-3-(2-methoxyphenyl)ureido)methyl)-benzamide]	292	5.8 ± 0.5	1690 ± 120	
COc1ccccc1N1C(=O)N(Cc2ccc(C(=O)NO)cc2)C(C)(C)C1=O [Compound 10a]				Fold Selective (HDAC1/HDAC6) ([1]; Table 2, cyclic urea compounds): 386; IC50 ([1]; Table 2, cyclic urea compounds): 74.2 nM; IC50 ([2]; Table 2, cyclic urea compounds): 28600 nM
COc1ccc(NC(=O)NCc2ccc(C(=O)NO)cc2)cc1 [Compound 9a]	128	8.3	1060	
COCCN(Cc1ccc(C(=O)NO)cc1)C(=O)Nc1ccccc1 [Compound 5f, N-hydroxy-4-((1-(2-methoxyethyl)-3-phenylureido)methyl)benzamide]	243	9.26 ± 0.66	2250 ± 420	
CCCCN(Cc1ccc(C(=O)NO)cc1)C(=O)Nc1ccccc1 [Compound 5g, 4-((1-butyl-3-phenylureido)methyl)-N-hydroxybenzamide]				acetyl α-tubulin levels [8]: dose-dependant increase of acetyl α-tubulin levels; also recorded: increased acetyl-tubulin levels; IC50 (HDAC3): 6680 ± 1750 nM; histone H3 acetylation ([9]; concentrations of 1 and 10 μM): observable increase in histone H3 acetylation; histone H3 acetylation ([9]; low nanomolar treatment, 24 h): without a concamanent elevation of histone H3 acetylation
